Data taken from patent US20250152564A1, “PROPYLENE KETONE-CONTAINING BIOINHIBITOR, PREPARATION METHOD THEREFOR, AND USE THEREOF” (SHANGHAI HANSOH BIOMEDICAL CO., LTD., priority 2022, published 2025).

Key:
FGFR2 V564F = FGFR2 V564F (Homo sapiens (Human), UniProt P21802, V564F); experiment: TR-FRET kinase inhibition assay, FGFR2 V564F; type: biochemical; conditions: ATP Km concentration (20 μM)
Procedure, shortened: (§1)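 Kinase-domain fragments in 50 mM HEPES pH 7.5 with 10 mM MgCl2, ATP at Km plus peptide substrate; 60 min reaction at room temperature, then EDTA/Eu-anti-phosphotyrosine (PT66) detection for 60 min (30 min for V564F). 11-point 3-fold dilutions from 1000 nM; IC50 from four-parameter fit of 665/620 nm ratio inhibition.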

[1] = Pharmacokinetic experiment in SD rats after oral administration; type: in vivo; conditions: 5 mg/kg, plasma; for AUC(0-t) / AUC(0-inf) / half-life / MRT / Cmax: male, Sprague-Dawley (SD), rat, po; for AUC(0-t): read-out: Area under the curve AUC0-t; for AUC(0-inf): read-out: Area under the curve AUC0-∞; for half-life: read-out: Half-life t1/2 (converted); for MRT: read-out: Mean residence time MRT; for Cmax: read-out: Plasma concentration Cmax; for Time to peak tmax: p.o.
[2] = system: BaF3 FGFR2-BICC1 V564F cells; experiment: CellTiter-Glo cell proliferation inhibition, BaF3 FGFR2-BICC1 V564F; type: cell-based; conditions: Mus musculus, 72 h, read-out: BaF3 FGFR2-BICC1 V564F inhibitory activity IC50
Procedure, shortened: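 Cells plated, compound added next day as 9-point 3-fold series from 1000 nM to 0.15 nM, incubated 72 h. Viability by CellTiter-Glo luminescence; IC50 from four-parameter variable-slope fit of percent inhibition.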

NCI-H716 cells = experiment: CellTiter-Glo cell proliferation inhibition, NCI-H716; type: cell-based; conditions: Homo sapiens, 72 h, read-out: NCI-H716 cell proliferation inhibition rate IC50
Procedure: To evaluate inhibitory effects of the compounds on the proliferation of NCI-H716, SNU-16 and BaF3-FGFR2-BICC1 V564F cells by cell proliferation inhibition experiments.
CellTiter-Glo method was used to detect inhibitory effects of the compounds on the proliferation of NCI-H716, SNU-16 and BaF3 FGFR2-BICC1 V564F cells. The highest detection concentration of the compounds was 1000 nM, which was diluted in 3 folds, with a total of 9 concentrations (1000 nM to 0.15 nM). After the cells were plated at an appropriate density, compounds were added the next day and incubated for 72 h before detection using the […] detection kit.
1) Inhibition rate (%): Inhibition rate %=[(mean value in positive control well−value in sample well)/(mean value in positive control well−mean value in negative control well)]×100, wherein the positive control well was a reaction well without a compound […], and the negative control well was a reaction wells without an enzyme.
2) Curve fitting: Log(inhibitor) vs. response—Variable slope (four parameters) in GraphPad Prism 6 was used for fitting equation analysis of the compound concentration and the corresponding inhibition rate, and the curve was fitted to obtain the IC50 values of the compounds.

FGFR1 = FGFR1 (Homo sapiens (Human), UniProt P11362); experiment: TR-FRET kinase inhibition assay, FGFR1; type: biochemical; conditions: ATP Km concentration (30 μM)
FGFR1, sequence (P11362 478-767): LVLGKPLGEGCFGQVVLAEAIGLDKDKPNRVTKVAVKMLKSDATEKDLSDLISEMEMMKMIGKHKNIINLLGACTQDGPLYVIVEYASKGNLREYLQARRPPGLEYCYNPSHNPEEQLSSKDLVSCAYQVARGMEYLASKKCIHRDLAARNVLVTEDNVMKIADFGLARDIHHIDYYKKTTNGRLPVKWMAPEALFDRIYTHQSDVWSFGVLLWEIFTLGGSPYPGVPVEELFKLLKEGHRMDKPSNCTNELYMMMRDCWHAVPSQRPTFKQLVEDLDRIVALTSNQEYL
Procedure, shortened: as §1

FGFR2 = FGFR2 (Homo sapiens (Human), UniProt P21802); experiment: TR-FRET kinase inhibition assay, FGFR2; type: biochemical; conditions: ATP Km concentration (30 μM)
FGFR2, sequence (P21802 481-770): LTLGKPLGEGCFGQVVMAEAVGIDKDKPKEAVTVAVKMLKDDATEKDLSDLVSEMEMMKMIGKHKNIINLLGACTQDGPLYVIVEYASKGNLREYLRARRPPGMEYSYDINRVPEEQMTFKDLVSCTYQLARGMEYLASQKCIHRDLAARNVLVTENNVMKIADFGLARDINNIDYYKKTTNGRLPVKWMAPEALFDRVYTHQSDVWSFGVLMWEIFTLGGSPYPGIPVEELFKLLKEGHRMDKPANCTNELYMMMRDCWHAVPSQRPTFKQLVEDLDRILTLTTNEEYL
Procedure, shortened: as §1

FGFR2 V564F, sequence (P21802 481-770 V564F): as the sequence (P21802 481-770) above, with V84F counted along it

C=CC(=O)N1CC[C@H](n2nc(C#Cc3ccc4cn(C5CC5)nc4c3)c3c(N)ncc(C(C)=O)c32)C1 [Example 87, (S)-1-(3-(7-acetyl-4-amino-3-((2-cyclopropyl-2H-indazol-6-yl)ethynyl)-1H-pyrazolo[4,3-c]pyridin-1-yl)pyrrolidine-1-methyl)prop-2-en-1-one]
IC50 (FGFR2 V564F): 0.6 nM
AUC(0-t) [1]: 2240 ng·h/mL
AUC(0-inf) [1]: 2240 ng·h/mL
half-life [1]: 0.5 h
MRT [1]: 2.38 h
Cmax [1]: 534 ng/mL
Time to peak tmax [1]: 2 h
IC50 [2]: 0.3 nM
IC50 (NCI-H716 cells): 1.31 nM
IC50 (FGFR1): 1.6 nM
IC50 (FGFR2): 0.5 nM

C=CC(=O)N1CC[C@H](n2nc(C#Cc3ccc4oc(C5CC5)nc4c3)c3c(N)ncc(C(C)=O)c32)C1 [Example 70, (S)-1-(3-(7-acetyl-4-amino-3-((2-cyclopropylbenzo[d]oxazol-5-yl)alkynyl)-1H-pyrazolo[4,3-c]pyridin-1-yl)pyrrolidine-1-methyl)prop-2-en-1-one]
IC50 (FGFR2 V564F): 1.3 nM
AUC(0-t) [1]: 1510 ng·h/mL
AUC(0-inf) [1]: 1860 ng·h/mL
half-life [1]: 2.5 h
MRT [1]: 5.5 h
Cmax [1]: 287 ng/mL
Time to peak tmax [1]: 4 h
IC50 [2]: 2.6 nM
IC50 (NCI-H716 cells): 1.6 nM
IC50 (FGFR1): 2.4 nM
IC50 (FGFR2): 0.6 nM

C=CC(=O)N1CC[C@H](n2nc(C#Cc3cc4ncn(CC)c4cc3F)c3c(N)ncc(C(=O)CC)c32)C1 [Example 60, (S)-1-(3-(4-amino-3-((1-ethyl-6-fluoro-1H-benzo[d]imidazol-5-yl)ethynyl)-7-propionyl-1H-pyrazolo[4,3-c]pyridin-1-yl)pyrrolidin-1-yl)prop-2-en-1-one]
IC50 (FGFR2 V564F): 0.4 nM
IC50 [2]: 1.7 nM
IC50 (NCI-H716 cells): 2.19 nM
IC50 (FGFR1): 4.7 nM
IC50 (FGFR2): 0.9 nM

C=CC(=O)N1CC[C@H](n2nc(C#Cc3ccc4c(c3)ncn4C)c3c(N)ncc(C(=O)C4CC4)c32)C1 [Example 65, (S)-1-(3-(4-amino-7-(cyclopropanecarbonyl)-3-((1-methyl-1H-benzo[d]imidazol-5-yl)ethynyl)-1H-pyrazolo[4,3-c]pyridin-1-yl)pyrrolidin-1-yl)prop-2-en-1-one]
IC50 (FGFR2 V564F): 0.5 nM
IC50 [2]: 1.4 nM
IC50 (NCI-H716 cells): 1.5 nM
IC50 (FGFR1): 2.8 nM
IC50 (FGFR2): 0.7 nM

C=CC(=O)N1CC[C@H](n2nc(C#Cc3cc4ncn(C5CC5)c4cc3F)c3c(N)ncc(C(=O)C4CC4)c32)C1 [Example 49, (S)-1-(3-(4-amino-7-(cyclopropanecarbonyl)-3-((1-cyclopropyl-6-fluoro-1H-benzo[d]imidazol-5-yl)ethynyl)-1H-pyrazolo[4,3-c]pyridin-1-yl)pyrrolidin-1-yl)prop-2-en-1-one]
IC50 (FGFR2 V564F): 1 nM
IC50 [2]: 0.4 nM
IC50 (NCI-H716 cells): 1.92 nM
IC50 (FGFR1): 3.9 nM
IC50 (FGFR2): 1.3 nM

C=CC(=O)N1CC[C@H](n2nc(C#Cc3ccc4cn(C)nc4c3)c3c(N)ncc(C(=O)C4CC4)c32)C1 [Example 84, (S)-1-(3-(4-amino-7-(cyclopropanecarbonyl)-3-((2-methyl-2H-indazol-6-yl)ethynyl)-1H-pyrazolo[4,3-c]pyridin-1-yl)pyrrolidin-1-yl)prop-2-en-1-one]
IC50 (FGFR2 V564F): 0.3 nM
IC50 [2]: 0.1 nM
IC50 (NCI-H716 cells): 1.04 nM
IC50 (FGFR1): 1 nM
IC50 (FGFR2): 0.5 nM

C=CC(=O)N1CC[C@H](n2nc(C#Cc3cc4ncn(CC)c4cc3F)c3c(N)ncc(C(=O)C4CC4)c32)C1 [Example 61, (S)-1-(3-(4-amino-7-(cyclopropanecarbonyl)-3-((1-ethyl-6-fluoro-1H-benzo[d]imidazol-5-yl)ethynyl)-1H-pyrazolo[4,3-c]pyridin-1-yl)pyrrolidin-1-yl)prop-2-en-1-one]
IC50 (FGFR2 V564F): 0.4 nM
IC50 [2]: 1 nM
IC50 (NCI-H716 cells): 1.77 nM
IC50 (FGFR1): 2.2 nM
IC50 (FGFR2): 0.8 nM
